{"source": "PubChem BioAssay AID1259407", "about": "(Chemical Carcinogenesis Research Information System (CCRIS), 2018)", "test_system": "CCRIS mutagenicity, Ames/micronucleus/aberration tests", "test": "CCRIS mutagenicity studies", "key": {"[1]": {"conditions": "Test System: AMES SALMONELLA TYPHIMURIUM, Strain/Indicator: TA98, Metabolic Activation: NONE, Method: PREINCUBATION"}}, "note": "Calls of active or inactive are those of the source. How the calls were made is not given here."}
{"smiles": "CC(C)c1ccccc1", "values": [{"measurement": "mutagenic call", "setting": "End Point: In vivo micronucleus, Test System: Polychromatic erythrocytes in bone marrow, Species: Rat, Strain/Sex: F344/N / Male, Route: Intraperitoneal", "result": "active; positive (both trials)"}, {"measurement": "mutagenic call", "setting": "End Point: In vivo micronucleus, Test System: Polychromatic erythrocytes in peripheral blood, Species: Mouse, Strain/Sex: B6C3F1/ Female, Route: Inhalation", "result": "inactive; negative"}, {"measurement": "mutagenic call", "setting": "End Point: In vivo micronucleus, Test System: Polychromatic erythrocytes in peripheral blood, Species: Mouse, Strain/Sex: B6C3F1/ Male, Route: Inhalation", "result": "inactive; negative"}, {"measurement": "mutagenic call", "setting": "Test System: Ames Salmonella typhimurium, Strain/Indicator: TA97, Metabolic Activation: Hamster, Liver, S-9, Aroclor 1254 (10%), Method: Preincubation", "result": "inactive; negative"}, {"measurement": "mutagenic call", "setting": "Test System: Ames Salmonella typhimurium, Strain/Indicator: TA97, Metabolic Activation: Hamster, Liver, S-9, Aroclor 1254 (30%), Method: Preincubation", "result": "inactive; negative"}, {"measurement": "mutagenic call", "setting": "Test System: Ames Salmonella typhimurium, Strain/Indicator: TA97, Metabolic Activation: None, Method: Preincubation", "result": "inactive; negative"}, {"measurement": "mutagenic call", "setting": "Test System: Ames Salmonella typhimurium, Strain/Indicator: TA97, Metabolic Activation: Rat, Liver, S-9, Aroclor 1254 (10%), Method: Preincubation", "result": "inactive; negative"}, {"measurement": "mutagenic call", "setting": "Test System: Ames Salmonella typhimurium, Strain/Indicator: TA97, Metabolic Activation: Rat, Liver, S-9, Aroclor 1254 (30%), Method: Preincubation", "result": "inactive; negative"}, {"measurement": "mutagenic call", "setting": "Test System: Ames Salmonella typhimurium, Strain/Indicator: TA98, Metabolic Activation: Hamster, Liver, S-9, Aroclor 1254 (10%), Method: Preincubation", "result": "inactive; negative"}, {"measurement": "mutagenic call", "setting": "Test System: Ames Salmonella typhimurium, Strain/Indicator: TA98, Metabolic Activation: Hamster, Liver, S-9, Aroclor 1254 (30%), Method: Preincubation", "result": "inactive; negative"}, {"measurement": "mutagenic call", "setting": "Test System: Ames Salmonella typhimurium, Strain/Indicator: TA98, Metabolic Activation: None, Method: Preincubation", "result": "inactive; negative"}, {"measurement": "mutagenic call", "setting": "Test System: Ames Salmonella typhimurium, Strain/Indicator: TA98, Metabolic Activation: Rat, Liver, S-9, Aroclor 1254 (10%), Method: Preincubation", "result": "inactive; negative"}, {"measurement": "mutagenic call", "setting": "Test System: Ames Salmonella typhimurium, Strain/Indicator: TA98, Metabolic Activation: Rat, Liver, S-9, Aroclor 1254 (30%), Method: Preincubation", "result": "inactive; negative"}, {"measurement": "mutagenic call", "setting": "Test System: Ames Salmonella typhimurium, Strain/Indicator: TA100, Metabolic Activation: Hamster, Liver, S-9, Aroclor 1254 (10%), Method: Preincubation", "result": "inactive; negative"}, {"measurement": "mutagenic call", "setting": "Test System: Ames Salmonella typhimurium, Strain/Indicator: TA100, Metabolic Activation: Hamster, Liver, S-9, Aroclor 1254 (30%), Method: Preincubation", "result": "inactive; negative"}, {"measurement": "mutagenic call", "setting": "Test System: Ames Salmonella typhimurium, Strain/Indicator: TA100, Metabolic Activation: None, Method: Preincubation", "result": "inactive; negative"}, {"measurement": "mutagenic call", "setting": "Test System: Ames Salmonella typhimurium, Strain/Indicator: TA100, Metabolic Activation: Rat, Liver, S-9, Aroclor 1254 (10%), Method: Preincubation", "result": "inactive; negative"}, {"measurement": "mutagenic call", "setting": "Test System: Ames Salmonella typhimurium, Strain/Indicator: TA100, Metabolic Activation: Rat, Liver, S-9, Aroclor 1254 (30%), Method: Preincubation", "result": "inactive; negative"}, {"measurement": "mutagenic call", "setting": "Test System: Ames Salmonella typhimurium, Strain/Indicator: TA1535, Metabolic Activation: Hamster, Liver, S-9, Aroclor 1254 (10%), Method: Preincubation", "result": "inactive; negative"}, {"measurement": "mutagenic call", "setting": "Test System: Ames Salmonella typhimurium, Strain/Indicator: TA1535, Metabolic Activation: Hamster, Liver, S-9, Aroclor 1254 (30%), Method: Preincubation", "result": "inactive; negative"}, {"measurement": "mutagenic call", "setting": "Test System: Ames Salmonella typhimurium, Strain/Indicator: TA1535, Metabolic Activation: None, Method: Preincubation", "result": "inactive; negative"}, {"measurement": "mutagenic call", "setting": "Test System: Ames Salmonella typhimurium, Strain/Indicator: TA1535, Metabolic Activation: Rat, Liver, S-9, Aroclor 1254 (10%), Method: Preincubation", "result": "inactive; negative"}, {"measurement": "mutagenic call", "setting": "Test System: Ames Salmonella typhimurium, Strain/Indicator: TA1535, Metabolic Activation: Rat, Liver, S-9, Aroclor 1254 (30%), Method: Preincubation", "result": "inactive; negative"}]}
{"smiles": "Cc1ccc2c(c1O)C(=O)c1ccccc1C2=O", "values": [{"measurement": "mutagenic call", "setting": "[1]", "result": "inactive; negative"}, {"measurement": "mutagenic call", "setting": "Test System: AMES SALMONELLA TYPHIMURIUM, Strain/Indicator: TA98, Metabolic Activation: RAT, LIVER, S-9, PCB, Method: PREINCUBATION", "result": "active; positive"}, {"measurement": "mutagenic call", "setting": "Test System: AMES SALMONELLA TYPHIMURIUM, Strain/Indicator: TA100, Metabolic Activation: NONE, Method: PREINCUBATION", "result": "inactive; negative"}, {"measurement": "mutagenic call", "setting": "Test System: AMES SALMONELLA TYPHIMURIUM, Strain/Indicator: TA100, Metabolic Activation: RAT, LIVER, S-9, PCB, Method: PREINCUBATION", "result": "active; positive"}]}
{"smiles": "ClC1=C(Cl)[C@]2(Cl)[C@@H]3[C@@H]4C[C@@H]([C@H]5O[C@@H]45)[C@@H]3[C@@]1(Cl)C2(Cl)Cl", "values": [{"measurement": "mutagenic call", "setting": "End Point: IN VITRO CHROMOSOMAL ABERRATIONS, Test System: CHINESE HAMSTER OVARY CELLS, Metabolic Activation: NONE", "result": "inactive; negative"}, {"measurement": "mutagenic call", "setting": "End Point: IN VITRO CHROMOSOMAL ABERRATIONS, Test System: CHINESE HAMSTER OVARY CELLS, Metabolic Activation: RAT, LIVER, S-9, AROCLOR 1254", "result": "inactive; negative; precipitation occurred at all doses"}, {"measurement": "mutagenic call", "setting": "Test System: AMES SALMONELLA TYPHIMURIUM, Strain/Indicator: TA97, Metabolic Activation: NONE, Method: STANDARD PLATE", "result": "inactive; negative"}, {"measurement": "mutagenic call", "setting": "Test System: AMES SALMONELLA TYPHIMURIUM, Strain/Indicator: TA97, Metabolic Activation: RAT, LIVER, S-9, AROCLOR 1254, Method: STANDARD PLATE", "result": "inactive; negative"}, {"measurement": "mutagenic call", "setting": "Test System: AMES SALMONELLA TYPHIMURIUM, Strain/Indicator: TA98, Metabolic Activation: NONE, Method: STANDARD PLATE", "result": "inactive; negative"}, {"measurement": "mutagenic call", "setting": "Test System: AMES SALMONELLA TYPHIMURIUM, Strain/Indicator: TA98, Metabolic Activation: RAT, LIVER, S-9, AROCLOR 1254, Method: STANDARD PLATE", "result": "inactive; negative"}, {"measurement": "mutagenic call", "setting": "Test System: AMES SALMONELLA TYPHIMURIUM, Strain/Indicator: TA100, Metabolic Activation: NONE, Method: STANDARD PLATE", "result": "inactive; negative"}, {"measurement": "mutagenic call", "setting": "Test System: AMES SALMONELLA TYPHIMURIUM, Strain/Indicator: TA100, Metabolic Activation: RAT, LIVER, S-9, AROCLOR 1254, Method: STANDARD PLATE", "result": "inactive; negative"}, {"measurement": "mutagenic call", "setting": "Test System: AMES SALMONELLA TYPHIMURIUM, Strain/Indicator: TA102, Metabolic Activation: NONE, Method: STANDARD PLATE", "result": "inactive; negative"}, {"measurement": "mutagenic call", "setting": "Test System: AMES SALMONELLA TYPHIMURIUM, Strain/Indicator: TA102, Metabolic Activation: RAT, LIVER, S-9, AROCLOR 1254, Method: STANDARD PLATE", "result": "inactive; negative"}, {"measurement": "mutagenic call", "setting": "Test System: CHINESE HAMSTER V-79, Strain/Indicator: V-79/OUABAIN, Metabolic Activation: NONE, Method: STANDARD PLATE", "result": "active; positive"}, {"measurement": "mutagenic call", "setting": "Test System: MOUSE LYMPHOMA, Strain/Indicator: L5178Y (TK+/TK-), Metabolic Activation: NONE, Method: SUSPENSION/PLATE", "result": "active; positive"}]}
{"smiles": "Cc1cc([N+](=O)[O-])cc2ccccc12", "values": [{"measurement": "mutagenic call", "setting": "[1]", "result": "active; positive"}]}
